Data on 46 compounds can be found in patent US10125111B2, “Benzofuran compounds for the treatment of hepatitis C” (BRISTOL-MYERS SQUIBB COMPANY, priority 2015, dated 2018).

The test system of the assay is genotype 1b (Con-1) HCV replicon. Put plainly: HCV Replicon Luciferase Assay. Format: cell-based. The settings on record: Hepatitis C virus, 72 h, Huh-7 genotype 1b replicon, Renilla luciferase, 3 days incubation; for pEC50: read-out: EC50 1b (class); for EC50: read-out: EC50 (uM) 1b. On the procedure: The cell lines used to evaluate compounds consist of a human hepatocyte derived cell line (Huh-7) that constitutively expresses a genotype 1b (Con-1) HCV replicon or a genotype 1b (Con-1) HCV replicon with an asparagine replacing the cysteine at amino acid 316, or a genotype 2a (JFH-1) replicon, containing a Renilla luciferase reporter gene. These cells were maintained in Dulbecco's modified Eagle medium (DMEM) containing 10% FBS, 100 U/mL penicillin/streptomycin and 1.0 mg/mL G418.
To evaluate compound efficacy, titrated compounds were transferred to sterile 384-well tissue culture treated plates, and the plates were seeded with HCV replicon cells (50 μL at a density of 2.4×10^3 cells/well) in DMEM containing 4% FBS (final DMSO concentration at 0.5%). After 3 days incubation at 37° C., cells were analyzed for Renilla Luciferase activity using the EnduRen substrate (Promega cat #E6485) according to the manufacturer's directions. Briefly, the EnduRen substrate was diluted in DMEM and then added to the plates to a final concentration of 7.5 μM. The plates were incubated for at least 1 h at 37° C. then read on a Viewlux Imager (PerkinElmer) using a luminescence program. The 50% effective concentration (EC50) was calculated using the four-parameter logistic Formula noted above.
Compound EC50 data is expressed as A: <100 nM; B=100-1000 nM; C>1000 nM).
For orientation: A replicon is a self-replicating genome or part of one, used to study replication in cells.

The structures appear in SMILES notation. pEC50: −log10 of the molar value. Like-named read-outs stand apart in the source and are kept apart here. Where only a bound is given, the exact number is not on record here.

As usually defined, the pEC50 is −log10 of the EC50, conventionally taken in molar units. One may read the EC50 as the concentration needed to bring the measured effect to its halfway point. With `C#CC(C)(C)NC(=O)c1cccc(-c2cc3c(C(=O)NC)c(-c4ccc(F)cc4)oc3cc2N(CCCF)S(C)(=O)=O)c1` [Compound 4012], the pEC50 was above 7.00 and the EC50 was determined as 0.008 µM. In the case of `CNC(=O)c1c(-c2ccc(F)cc2)oc2cc(N(CCF)S(C)(=O)=O)c(-c3cccc(C(=O)N4CCN(C(=O)OC(C)(C)C)CC4)c3)cc12` [Compound 3028], the pEC50 was above 7.00.

On to `CNC(=O)c1c(-c2ccc(F)cc2)oc2cc(N(CC=C(F)F)S(C)(=O)=O)c(-c3cccc(C(=O)OC)c3)cc12` [Compound 8001], for which the pEC50 is above 7.00. Turning to `CCC1CCCN1C(=O)c1cccc(-c2cc3c(C(=O)NC)c(-c4ccc(F)cc4)oc3cc2N(CCF)S(C)(=O)=O)c1` (stereo not drawn) [Compound 3027], the pEC50 was above 7.00. `CNC(=O)c1c(-c2ccc(F)cc2)oc2cc(N(CCC(F)(F)F)S(C)(=O)=O)c(-c3cccc(C(=O)O)c3)cc12` [Compound 9002]: the pEC50 is below 6.00. In the case of `CNC(=O)c1c(-c2ccc(F)cc2)oc2cc(N(CCCF)S(C)(=O)=O)c(-c3cccc(C(=O)NC(C)(C)C(C)(C)C)c3)cc12` [Compound 4026], the pEC50 is above 7.00.

With `CNC(=O)c1c(-c2ccc(F)cc2)oc2cc(N(CCF)S(C)(=O)=O)c(-c3cccc(C(=O)N4CCN(c5ccc(Cl)cc5)CC4)c3)cc12` [Compound 3020], the pEC50 is above 7.00 and the EC50 is 0.0094 µM. Regarding `CNC(=O)c1c(-c2ccc(F)cc2)oc2cc(N(CCF)S(C)(=O)=O)c(-c3cccc(C(=O)NC(C)(C)C)c3)cc12` [Compound 3016], the pEC50 was above 7.00. Regarding `CNC(=O)c1c(-c2ccc(F)cc2)oc2cc(N(CCC(F)(F)F)S(C)(=O)=O)c(-c3cccc(C(=O)NC(CF)(CF)CF)c3)cc12` [Compound 9005], the pEC50 is above 7.00. Same read-out and setting: the result for `CNC(=O)c1c(-c2ccc(F)cc2)oc2cc(N(CCCF)S(C)(=O)=O)c(-c3cccc(C(=O)NC4(C)CC4)c3)cc12` [Compound 4016] reads above 7.00. As for `CNC(=O)c1c(-c2ccc(F)cc2)oc2cc(N(CCF)S(C)(=O)=O)c(-c3cccc(C(=O)NCC(F)(F)C(F)(F)F)c3)cc12` [Compound 3012], the pEC50 was above 7.00 and the EC50 came to 0.0032 µM.

On to `CNC(=O)c1c(-c2ccc(F)cc2)oc2cc(N(CCF)S(C)(=O)=O)c(-c3cccc(C(=O)N4CCC(c5ccc(F)cc5)C4)c3)cc12` (stereo not drawn) [Compound 3034], for which the pEC50 is above 7.00 and the EC50 stood at 0.0117 µM. In the case of `C#CC(C)(CC)NC(=O)c1cccc(-c2cc3c(C(=O)NC)c(-c4ccc(F)cc4)oc3cc2N(CCCF)S(C)(=O)=O)c1` (stereo not drawn) [Compound 4029], the pEC50 was above 7.00 and the EC50 came out at 0.0059 µM. With `CNC(=O)c1c(-c2ccc(F)cc2)oc2cc(N(CC3CC3)S(C)(=O)=O)c(-c3cccc(C(=O)O)c3)cc12` [Compound 2002], the pEC50 is below 6.00 and the EC50 is 7.55 µM. As to `CNC(=O)c1c(-c2ccc(F)cc2)oc2cc(NCCCF)c(-c3cccc(C(=O)NC(C)(C)C#N)c3)cc12` [Compound 5003], the pEC50 was above 7.00. In the case of `CNC(=O)c1c(-c2ccc(F)cc2)oc2cc(N(CCF)S(C)(=O)=O)c(-c3cccc(C(=O)N4CC(NC(=O)OC(C)(C)C)C4)c3)cc12` [Compound 3042], the pEC50 is 6.00 to 7.00 and the EC50 stood at 0.138 µM. As for `CNC(=O)c1c(-c2ccc(F)cc2)oc2cc(N(CCF)S(C)(=O)=O)c(-c3cccc(C(=O)N[C@H](C)C(F)(F)F)c3)cc12` [Compound 3021], the pEC50 was above 7.00. As for `CNC(=O)c1c(-c2ccc(F)cc2)oc2cc(N(CCCF)S(C)(=O)=O)c(-c3cccc(C(=O)NC(C)(C)CF)c3)cc12` [Compound 4008], the pEC50 was above 7.00. `CNC(=O)c1c(-c2ccc(F)cc2)oc2cc(N(CCF)S(C)(=O)=O)c(-c3cccc(C(=O)N4CCC(C)(C)C4)c3)cc12` [Compound 3017]: the pEC50 is above 7.00 and the EC50 came out at 0.0063 µM.

On to `CNC(=O)c1c(-c2ccc(F)cc2)oc2cc(N(CCC(F)(F)F)S(C)(=O)=O)c(-c3cccc(C(=O)NC(C)(C)CF)c3)cc12` [Compound 9007], for which the pEC50 was above 7.00. As to `CNC(=O)c1c(-c2ccc(F)cc2)oc2cc(N(CCCF)S(C)(=O)=O)c(-c3cccc(C(=O)O)c3)cc12` [Compound 4002], the pEC50 was below 6.00.

Consider `CNC(=O)c1c(-c2ccc(F)cc2)oc2cc(N(CCF)S(C)(=O)=O)c(-c3cccc(C(=O)N4[C@@H](COC)CC[C@@H]4COC)c3)cc12` [Compound 3026], for which the pEC50 is 6.00 to 7.00 and the EC50 came to 0.332 µM. Turning to `CNC(=O)c1c(-c2ccc(F)cc2)oc2cc(N(CCF)S(C)(=O)=O)c(-c3cccc(C(=O)N4CCN(CC(C)C)CC4)c3)cc12` [Compound 3033], the pEC50 was above 7.00. With `CNC(=O)c1c(-c2ccc(F)cc2)oc2cc(N(CCF)S(C)(=O)=O)c(-c3cccc(C(=O)N4[C@H](C)CC[C@H]4C)c3)cc12` [Compound 3023], the negative logarithm of the EC50 (pEC50) is above 7.00.

For `CNC(=O)c1c(-c2ccc(F)cc2)oc2cc(N(CCF)S(C)(=O)=O)c(-c3cccc(C(=O)NC(C4CC4)C4CC4)c3)cc12` [Compound 3010], the pEC50 was above 7.00 and the 50% effective concentration (EC50) came out at 0.0056 µM.

With `CNC(=O)c1c(-c2ccc(F)cc2)oc2cc(N(CCCF)S(C)(=O)=O)c(-c3cccc(C(=O)NC(C)(C)C(=O)OC)c3)cc12` [Compound 4013], the pEC50 is above 7.00.

As for `CNC(=O)c1c(-c2ccc(F)cc2)oc2cc(N(CCF)S(C)(=O)=O)c(-c3cccc(C(=O)N4CCCC4C)c3)cc12` (stereo not drawn) [Compound 3024], the pEC50 was above 7.00. For the compound `CNC(=O)c1c(-c2ccc(F)cc2)oc2cc(N(CCCF)S(C)(=O)=O)c(-c3cccc(C(=O)N[C@@H](C)C(F)(F)F)c3)cc12` [Compound 4021], the pEC50 was above 7.00. Same read-out and setting: to `CNC(=O)c1c(-c2ccc(F)cc2)oc2cc(N(CCCF)S(C)(=O)=O)c(-c3cccc(C(=O)N[C@H](C)C(F)(F)F)c3)cc12` [Compound 4030] belongs above 7.00; to `CNC(=O)c1c(-c2ccc(F)cc2)oc2cc(N(CCF)S(C)(=O)=O)c(-c3cccc(C(=O)N4CCC[C@H]4CO)c3)cc12` [Compound 3035], 6.00 to 7.00.

Take `CNC(=O)c1c(-c2ccc(F)cc2)oc2cc(N(CCCF)S(C)(=O)=O)c(-c3cccc(C(=O)NC(CF)(CF)CF)c3)cc12` [Compound 4004]: the pEC50 was above 7.00.

Consider `CNC(=O)c1c(-c2ccc(F)cc2)oc2cc(N(CCF)S(C)(=O)=O)c(-c3cccc(C(=O)NCC(C)(C)C)c3)cc12` [Compound 3015], for which the pEC50 was above 7.00.

With `CNC(=O)c1c(-c2ccc(F)cc2)oc2cc(NCCCF)c(-c3cccc(C(=O)NC(CF)(CF)CF)c3)cc12` [Compound 5006], the pEC50 is above 7.00 and the EC50 was found to be 0.0094 µM.

With `CNC(=O)c1c(-c2ccc(F)cc2)oc2cc(N(CCF)S(C)(=O)=O)c(-c3cccc(C(=O)NC(C)(C)C(F)(F)F)c3)cc12` [Compound 3003], the pEC50 was above 7.00. For the compound `CNC(=O)c1c(-c2ccc(F)cc2)oc2cc(N(CCCF)S(C)(=O)=O)c(-c3cccc(C(=O)NC(C)(C)CO)c3)cc12` [Compound 4018], the pEC50 was above 7.00. With `CNC(=O)c1c(-c2ccc(F)cc2)oc2cc(N(CCCF)S(C)(=O)=O)c(-c3cccc(C(=O)NC(C)(C)C#N)c3)cc12` [Compound 4024], the pEC50 was above 7.00. The same measure, in the same setting: the result for `CNC(=O)c1c(-c2ccc(F)cc2)oc2cc(N(CCF)S(C)(=O)=O)c(-c3cccc(C(=O)N4CCN(C(=O)OC(C)(C)C)CC4(C)C)c3)cc12` [Compound 3044] reads above 7.00. Same read-out and setting: the result for `CC[C@H](NC(=O)c1cccc(-c2cc3c(C(=O)NC)c(-c4ccc(F)cc4)oc3cc2N(CCF)S(C)(=O)=O)c1)C1CC1` [Compound 3008] reads above 7.00; that for `CNC(=O)c1c(-c2ccc(F)cc2)oc2cc(N(CCF)S(C)(=O)=O)c(-c3cccc(C(=O)N4CCN(C(=O)OC(C)(C)C)CC4c4ccccc4)c3)cc12` (stereo not drawn) [Compound 3031], above 7.00.

As for `CNC(=O)c1c(-c2ccc(F)cc2)oc2cc(N(C(F)F)S(C)(=O)=O)c(-c3cccc(C(=O)NC(C)(C)C#N)c3)cc12` [Compound 6004], the pEC50 was above 7.00. In the case of `CNC(=O)c1c(-c2ccc(F)cc2)oc2cc(N(CCF)S(C)(=O)=O)c(-c3cccc(C(=O)NC(C)(C)C(=O)OC)c3)cc12` [Compound 3014], the pEC50 was above 7.00. Turning to `CNC(=O)c1c(-c2ccc(F)cc2)oc2cc(N(CC3CC3)S(C)(=O)=O)c(-c3cccc(C(=O)NC(C)(C)C(F)(F)F)c3)cc12` [Compound 2003], the pEC50 is above 7.00. Take `CNC(=O)c1c(-c2ccc(F)cc2)oc2cc(N(CCCF)S(C)(=O)=O)c(-c3cccc(C(=O)NC(C)(C)CCO)c3)cc12` [Compound 4027]: the pEC50 is above 7.00. Same read-out and setting: the result for `CNC(=O)c1c(-c2ccc(F)cc2)oc2cc(N(CCF)S(C)(=O)=O)c(-c3cccc(C(=O)NC4(C#N)CC4)c3)cc12` [Compound 3011] reads above 7.00; that for `CNC(=O)c1c(-c2ccc(F)cc2)oc2cc(N(CCF)S(C)(=O)=O)c(-c3cccc(C(=O)N4CCN(c5ccccc5)CC4)c3)cc12` [Compound 3025], above 7.00. With `CNC(=O)c1c(-c2ccc(F)cc2)oc2cc(N(CCCF)S(C)(=O)=O)c(-c3cccc(C(=O)NC4(C#N)CC4)c3)cc12` [Compound 4014], the pEC50 is above 7.00.
